Reference: patent US4474794A, “N-Thiazolylmethylthioalkyl-N^1 -alkenyl (or alkynyl)guanidines and related compounds” (Eli Lilly and Company, priority 1982, dated 1984)

Assays:
[1] = tested on: H2 -receptor; conditions: said in U.S. Pat. No. 4,203,909; cited from earlier work
[2] = biological target: T1, H2 -receptors (Rattus norvegicus, UniProt P25102); assay: H2-receptor blocking activity, histamine relaxation of KCl-contracted isolated rat uterine horns; assay type: cell-based; conditions: for Kb: antagonist 10^-5 molar for 30 minutes, rat uterine strips, histamine dose-response shift, read-out: pA2 (-log KB) (converted)
T1 construct: uterine horns removed therefrom and suspended at ambient temperatures in isolated organ baths; from tissue; host or cells: isolated uterine horns of estrone-treated female albino rats
T1 sequence (P25102 whole entry): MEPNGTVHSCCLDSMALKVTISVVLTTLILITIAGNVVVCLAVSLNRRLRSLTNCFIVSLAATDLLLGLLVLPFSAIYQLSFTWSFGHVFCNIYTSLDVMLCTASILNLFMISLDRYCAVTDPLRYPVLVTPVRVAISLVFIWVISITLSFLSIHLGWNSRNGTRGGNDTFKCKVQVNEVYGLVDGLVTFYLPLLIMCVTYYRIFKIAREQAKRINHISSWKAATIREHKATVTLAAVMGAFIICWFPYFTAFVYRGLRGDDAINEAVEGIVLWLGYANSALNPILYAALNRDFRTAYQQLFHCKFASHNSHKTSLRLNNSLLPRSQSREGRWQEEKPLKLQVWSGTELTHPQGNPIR
Method: The following assay for H2 -receptor blocking activity was employed. Female albino rats were treated with estrone 24 hours prior to the initiation of the experiment. The rats were sacrificed and the uterine horns removed therefrom and suspended at ambient temperatures in isolated organ baths containing De Jalon's solution. After equilibration, the uterine strips are exposed to 50 millimole aqueous potassium chloride, which produces a sustained contraction. When the uterus is so contracted, histamine produces a dose-dependent H2 -receptor-mediated relaxation. A control dose-response curve to histamine is constructed on each tissue. Following thorough washout of the histamine after obtaining the control dose-response curve, each antagonist (the compounds of this invention) is added for 30 minutes at a concentration of 10^-5 molar. The uterine strips are then contracted with aqueous potassium chloride in the presence of the antagonist and a second dose-response curve to histamine obtained. In the presence of a competitive antagonist, the dose-response curve to histamine is shifted in parallel to the right with no depression of the maximum relative to the control curve. The dose ratio (DR) is calculated for each concentration of antagonist by dividing the ED50 of histamine in the presence of the competitive antagonist by the control ED50 for histamine. The dissociation constant (KB ) of the antagonist is calculated from the dose-ratios by the following equation: […]
Cimetidine is included as an internal standard.

[3] = tested on: acid secretion; assay: in vivo antisecretory action on histamine-stimulated acid secretion in gastric fistula dogs
Method: An in vivo assay for antisecretory action of drugs on acid secretion utilizes gastric fistula dogs with vagally innervated gastric fistula and vagally denervated Heidenhain pouch. In this procedure, a steady-state gastric secretion is produced by the iv infusion of histamine. The antisecretory drugs under test are given either intravenously by infusion over a 30 minute period or orally 75 min. prior to collection of gastric secretion from the fistula.

[4] = tested on: H2 receptor; conditions: prior art; cited from earlier work

C#CCNC(=C[N+](=O)[O-])NCCSCc1ccc(CN(C)C)o1 [1-nitro-2-(2-propynylamino)-2-(2-[(5-dimethylaminomethyl-2-furyl)methylthio]ethylamino)ethylene]
times the activity of cimetidine [1]: 7.45 times

C#CCNC(=NC#N)NCCSCc1csc(CN(C)C)n1 [N-2-propynyl-N'-2-(2-dimethylaminomethyl-4-thiazolylmethylthio)ethyl-N"-cyanoguanidine]
Kb [2]: 1 µM

C#CCNC(=C[N+](=O)[O-])NCCSCc1csc(CN(C)C)n1 [N-(2-propynyl)-N'-2-(2-dimethylaminomethyl-4-thiazolylmethylthio)ethyl 2-nitro-1,1-ethenediamine]
Kb [2]: 0.186 µM | times higher affinity for the H2 -receptors than cimetidine ([2]; relative to cimetidine internal standard): approximately 3.63 times | ED50 ([3]; Canis lupus familiaris, 0.5 h, iv infusion over 30 minutes, histamine-stimulated gastric secretion): 0.068 µmol/kg | times smaller ED50 (iv) than that found for cimetidine ([3]; iv, relative to cimetidine): over 7 times

CNC(=C[N+](=O)[O-])NCCSCc1ccc(CN(C)C)o1 [ranitidine]
H2 receptor antagonist activity compared with cimetidine [4]: greater H2 receptor antagonist activity than cimetidine
